Assay results reported in PubChem BioAssay AID1253 (Columbia University Molecular Screening Center, 2008).
Calls of active or inactive are those of the source.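 How the source made its calls: active means IC50 under 10 µM in the follow-up dose response; inactive means IC50 10 µM or more, or under 40% single-dose inhibition.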

What follows are molecules tested against Tyrosine-protein phosphatase non-receptor type 22 (Homo sapiens) (UniProt Q9Y2R2) (assay: LYP phosphatase inhibitors, confirmation, biochemical, DiFMUP fluorescence, retest and dose response (AID 1253)). Conditions: recombinant LYP.
Chain of Tyrosine-protein phosphatase non-receptor type 22 (Homo sapiens) (Q9Y2R2 whole entry, looked up): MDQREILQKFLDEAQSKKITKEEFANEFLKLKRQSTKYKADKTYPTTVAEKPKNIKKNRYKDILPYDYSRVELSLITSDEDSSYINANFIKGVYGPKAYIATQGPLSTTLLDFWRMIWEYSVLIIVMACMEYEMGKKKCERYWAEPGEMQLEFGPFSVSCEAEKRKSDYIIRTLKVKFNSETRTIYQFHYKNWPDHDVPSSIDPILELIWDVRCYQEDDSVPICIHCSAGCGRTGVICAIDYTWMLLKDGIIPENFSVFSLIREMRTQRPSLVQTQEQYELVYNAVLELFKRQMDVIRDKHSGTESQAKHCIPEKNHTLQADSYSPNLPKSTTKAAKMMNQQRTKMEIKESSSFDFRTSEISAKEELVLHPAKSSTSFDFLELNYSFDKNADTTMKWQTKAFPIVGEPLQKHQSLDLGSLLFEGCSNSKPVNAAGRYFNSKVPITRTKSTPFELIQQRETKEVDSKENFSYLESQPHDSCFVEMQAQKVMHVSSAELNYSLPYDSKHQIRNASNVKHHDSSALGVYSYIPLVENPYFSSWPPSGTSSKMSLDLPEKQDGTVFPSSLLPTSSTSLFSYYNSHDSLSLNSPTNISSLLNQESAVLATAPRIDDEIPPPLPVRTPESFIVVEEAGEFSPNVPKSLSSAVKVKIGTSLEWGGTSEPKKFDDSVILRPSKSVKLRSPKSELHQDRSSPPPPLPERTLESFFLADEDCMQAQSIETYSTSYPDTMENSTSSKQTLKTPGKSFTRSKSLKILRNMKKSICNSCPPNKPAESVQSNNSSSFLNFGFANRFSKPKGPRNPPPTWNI
`O=C(O)CCN1C(=O)/C(=C/c2ccc(-c3nc4ccccc4s3)o2)SC1=S` gave an IC50 of 1450 nM.
Molecule `Nc1c(C(=O)Nc2nc3ccccc3s2)sc2nc(-c3cccs3)ccc12` has an IC50 of 1240 nM.
For `Cc1c2cc(O)c(=O)cc-2oc2cc(O)c(O)cc12`, the IC50 was 480 nM.
`COc1cc(-c2nnc(SCc3cc(=O)oc4cc(O)c(O)cc34)o2)cc(OC)c1OC` gave an IC50 of 2600 nM.
Molecule `O=[N+]([O-])c1cc(/C=N\Nc2nccs2)ccc1O` has an IC50 of 4060 nM.
Molecule `O=C(c1cccs1)c1no[n+]([O-])c1C(=O)c1cccs1` has an IC50 of 1660 nM.
For `Cc1cc(-c2c(C)[nH]n(-c3ccc(Cl)cc3)c2=O)n[nH]1`, the IC50 was > 10000 nM (inactive).
In the case of `Cc1ccc(NC(=O)CN2C(=O)S/C(=C\c3cccn3-c3cccc(C(=O)O)c3)C2=O)c(C)c1`, the IC50 is reported as 1270 nM.

Same assay, conditions: recombinant LYP, at 10 µM, hits give high values
In the case of `COc1ccc(CN2CCN(C(=O)c3ccco3)CC2)cc1`, the inhibition is reported as “inactive”.
`CCOc1ccccc1NC(=O)CN(c1ccc(C)cc1)S(=O)(=O)c1c(C)noc1C` was tested, and the inhibition was “inactive”.
With `O=C(Nc1cnc2ccccc2c1)C1COc2ccccc2O1` (centres undefined) the inhibition was “inactive”.
With `COC(=O)c1sccc1-n1cccc1C(=O)N1CCOCC1` the inhibition was “inactive”.
For `CN(C)c1ccc(/C=N/N=C2/NC(=O)/C(=C/c3ccc([N+](=O)[O-])cc3)S2)cc1`, the inhibition was “inactive”.
In the case of `CCOC(=O)C1=C(C)OC(N)=C(C#N)C1c1c(C)nn(-c2ccc(C)cc2)c1Cl` (centres undefined), the inhibition is reported as “inactive”.
`O=C(Cn1c(-c2ccc(Cl)cc2)noc1=O)N1CCN(c2ccccc2F)CC1` was tested, and the inhibition was “inactive”.
In the case of `O=C(OCC1OC(n2cnc3c(N(C(=O)c4ccccc4)C(=O)c4ccccc4)ncnc32)C(O)C1F)c1ccccc1` (centres undefined), the inhibition is reported as “inactive”.
With `Cc1ccc2nc(NC(=O)c3cccc(-c4cc5ccccc5oc4=O)c3)sc2c1` the inhibition was “inactive”.
In the case of `CNC(=S)NNC(=O)c1cccn(Cc2ccc(Cl)cc2Cl)c1=O`, the inhibition is reported as “inactive”.
For `O=C(N/N=C/c1ccncc1)c1cc([N+](=O)[O-])cc([N+](=O)[O-])c1O`, the inhibition was “inactive”.
For `CCNC(=O)COc1cc(C)c(Cl)c(C)c1`, the inhibition was “inactive”.
For `CCOc1ccc(N2C(=O)CS/C2=C(\C(Cl)=C(Cl)Cl)[N+](=O)[O-])cc1`, the inhibition was “inactive”.
In the case of `O=C(O)CCCCCNc1nc(=S)[nH]c2ccccc12`, the inhibition is reported as “inactive”.
With `O=C(N/N=C/C=C/c1ccccc1)c1cc2c(ccc3ccccc32)o1` the inhibition was “inactive”.
For `Cc1ccc(NC(=O)CN2C(=O)S/C(=C/c3ccc(-c4cc(C(=O)O)ccc4C)o3)C2=O)cc1C`, the inhibition was “inactive”.
With `Cc1ccc2c(Cl)cc(Cl)c(OCC(=O)NCc3ccco3)c2n1` the inhibition was “inactive”.
In the case of `COc1cnc(-c2ccccn2)nc1Sc1ccc(Cl)cc1`, the inhibition is reported as “inactive”.
For `O=C(NNC(=O)c1ccc2ccccc2c1O)c1ccccc1Cl`, the inhibition was “inactive”.
With `CC1CCc2c(sc(NC(=O)c3ccc(Cn4cc([N+](=O)[O-])cn4)o3)c2C#N)C1` (centres undefined) the inhibition was “inactive”.
In the case of `O=C(NNC(=O)c1cc2cc3ccccc3nc2s1)c1cccc(Cl)c1`, the inhibition is reported as “inactive”.
`O=c1c(-c2nnc(SCc3ccc(Cl)cc3Cl)o2)cccn1Cc1ccccc1` was tested, and the inhibition was “inactive”.
`O=C(CCC(=O)OC(C(=O)c1ccccc1)c1ccccc1)Nc1ccccc1` (centres undefined) was tested, and the inhibition was “inactive”.
`Cc1cc(SCC(=O)N/N=C/c2ccc(O)c(O)c2O)c(C)cc1Br` was tested, and the inhibition was “inactive”.
For `Cc1nc2ccc(S(=O)(=O)NCC(=O)NCc3ccc4c(c3)OCO4)cc2s1`, the inhibition was “inactive”.
`COc1ccccc1OCc1nnc(SCC(=O)NCc2ccco2)n1Cc1ccco1` was tested, and the inhibition was “inactive”.
In the case of `O=C(Nc1ccc2oc(-c3ccc4ccccc4c3)nc2c1)c1ccc2c(c1)OCCO2`, the inhibition is reported as “inactive”.
In the case of `CCOC(=O)c1c(N2C(=O)Nc3cc(Cl)c(Cl)cc3N2O)sc2c1CCCCC2`, the inhibition is reported as “inactive”.
With `CC1CCN(S(=O)(=O)c2ccc(NN=C(C#N)C#N)cc2)CC1` the inhibition was “inactive”.
For `CC(=O)NC1CC2CCCC(C1)N2C(=O)Nc1ccccc1` (centres undefined), the inhibition was “inactive”.
For `CCCCCCc1cc2cc(-c3nnc(-c4ccccc4OC)o3)c(=O)oc2cc1O`, the inhibition was “inactive”.
For `O=C(Nc1nnc(COc2ccc(Cl)cc2)s1)c1ccc([N+](=O)[O-])cc1`, the inhibition was “inactive”.
For `CN1/C(=C\C=C\C2=[N+](C)c3ccc4ccccc4c3C2(C)C)C(C)(C)c2ccccc21`, the inhibition was “inactive”.
In the case of `O=C(CN(C(=O)CNC(=O)c1ccco1)c1ccc2c(c1)OCO2)NC1CCCCC1`, the inhibition is reported as “inactive”.
`C=CCNC(=S)NNC(=O)c1cccn(Cc2ccc(Cl)c(Cl)c2)c1=O` was tested, and the inhibition was “inactive”.
For `c1ccc(-c2nccc(-c3ccc(-n4cnc5ccccc54)cc3)n2)nc1`, the inhibition was “inactive”.
In the case of `Cc1ccc(CSc2nnc(-c3ccccc3N)c(=O)[nH]2)cc1`, the inhibition is reported as “inactive”.
In the case of `O=C(CSc1nc2ccccc2c2nc3ccccc3n12)NCc1ccco1`, the inhibition is reported as “inactive”.
`COCCn1c(Cc2ccccc2)nnc1SCc1nc2ccccc2c(=O)[nH]1` was tested, and the inhibition was “inactive”.
For `COc1ccc(S(=O)(=O)Nc2ccc(S(=O)(=O)N3CCCCC3)cc2)cc1`, the inhibition was “inactive”.
For `CN1CCn2c1nc(N1CCOCC1)nc2=O`, the inhibition was “inactive”.
In the case of `Cc1nc2c(c(=O)n1CCC1=CCCCC1)c1nc3ccccc3nc1n2/N=C/c1ccccc1`, the inhibition is reported as “inactive”.
In the case of `CC(=O)Nc1cccc(NC(=O)CCn2cnc3cc(C)c(C)cc32)c1`, the inhibition is reported as “inactive”.
With `COc1ccc2c(C)cc(SCC(=O)Nc3c(C)n(C)n(-c4ccccc4)c3=O)nc2c1` the inhibition was “inactive”.
With `O=C(CSc1nnc(-c2cccs2)n1-c1cccc(Cl)c1)c1cccc2c1OCCO2` the inhibition was “inactive”.
For `Cc1cc(C)n2nc(SCc3cc(=O)oc4cc(O)ccc34)nc2n1`, the inhibition was “inactive”.
With `CCCCNS(=O)(=O)c1ccc(NS(=O)(=O)c2c(C)cc(C)cc2C)cc1` the inhibition was “inactive”.
For `Clc1ccc(C2=Nn3c(nnc3-c3cc(-c4ccccc4)n[nH]3)SC2)cc1`, the inhibition was “inactive”.
With `Cc1ccc2nc(NC(=S)NC(=O)c3cccs3)sc2c1` the inhibition was “inactive”.
For `COCCCNC(=O)c1cccn2c(=O)c3cc4ccccc4cc3nc12`, the inhibition was “inactive”.
For `O=C(Nc1ccc(-c2nc3ccc(NC(=O)c4cccs4)cc3[nH]2)cc1)c1cccs1`, the inhibition was “inactive”.
With `Cc1nn(-c2ccccc2)c(Cl)c1/C=N/Nc1ccc(S(=O)(=O)Nc2ccccc2C(=O)O)cc1[N+](=O)[O-]` the inhibition was “inactive”.
With `CC(=O)Nc1nonc1NC(=O)c1ccc(C(C)(C)C)cc1` the inhibition was “inactive”.
`Cc1nn(-c2ccccc2)c(C)c1/C=N/NC(=O)c1cc(C23CC4CC(CC(C4)C2)C3)[nH]n1` was tested, and the inhibition was “inactive”.
For `N#Cc1ccccc1CN1C(=O)S/C(=C/c2cccn2-c2cccc(C(=O)O)c2)C1=O`, the inhibition was “inactive”.
In the case of `Cc1sc(NC(=O)c2sc3nc4c(C)cccc4cc3c2N)c(C#N)c1C`, the inhibition is reported as “inactive”.
In the case of `Nc1nnc(SCC(=O)Nc2ccc(S(=O)(=O)N3CCOCC3)cc2)s1`, the inhibition is reported as “inactive”.
For `CCNC(=S)NNC(=O)c1cccn(Cc2ccc(Cl)cc2)c1=O`, the inhibition was “inactive”.
In the case of `Cc1ccc(-c2nc3ccccc3[nH]2)cc1NC(=O)c1sc2ccccc2c1Cl`, the inhibition is reported as “inactive”.
For `CCCCCCCCC/C(=N\O)c1ccccn1`, the inhibition was “inactive”.
With `CN(C)/C=C/C(=O)c1ccc(F)cc1` the inhibition was “inactive”.
`Cc1ccc(-n2nc3c4c(cccc4c2=O)-c2ccccc2-3)cc1` was tested, and the inhibition was “inactive”.
With `O=C(NCc1ccco1)c1ccc2nc3sc4c(c3c(=O)n2c1)CCCC4` the inhibition was “inactive”.
`CCc1ccc2nc(NC(=O)c3ccc4c(=O)[nH]c(CN5CCOCC5)nc4c3)sc2c1` was tested, and the inhibition was “inactive”.
In the case of `Cc1cc(C)cc(-n2c3nc4ccccc4nc3c3c(=O)n(Cc4ccco4)cnc32)c1`, the inhibition is reported as “inactive”.
In the case of `NC(=O)C1CCN(C(c2ccccc2Cl)c2nnnn2CC2CCCO2)CC1` (centres undefined), the inhibition is reported as “inactive”.
With `Cc1ccc(C(=O)NNC(=O)CSc2nnc3c(n2)[nH]c2ccc(F)cc23)cc1` the inhibition was “inactive”.
For `COc1cc(OC)cc(C(=O)Nc2ccccc2C(=O)N2CCCC2)c1`, the inhibition was “inactive”.
With `CCCC1COC(Cn2cncn2)(c2ccc(Cl)cc2Cl)O1` (centres undefined) the inhibition was “inactive”.
In the case of `COc1ccc(-n2nnnc2SCC(=O)c2ccc(O)c(O)c2)cc1`, the inhibition is reported as “inactive”.
For `c1ccc(-c2ccc(C3=Nn4c(nnc4-c4cc(-c5ccccc5)n[nH]4)SC3)cc2)cc1`, the inhibition was “inactive”.
For `O=C(CSc1nnc(-c2ccc(Cl)s2)o1)N1CCCc2ccccc21`, the inhibition was “inactive”.
For `CCn1nc(C(=O)OCC(=O)c2cc(C)n(Cc3cccs3)c2C)c2ccccc2c1=O`, the inhibition was “inactive”.
For `C=CCNC(=S)NNC(=O)c1cccn(Cc2ccc(Cl)cc2Cl)c1=O`, the inhibition was “inactive”.
For `CCn1c(CSc2nc3ccccc3s2)nnc1SCC(=O)c1ccc(O)c(O)c1`, the inhibition was “inactive”.
For `O=C(N/N=C/c1cccc([N+](=O)[O-])c1)c1cc2c(ccc3ccccc32)o1`, the inhibition was “inactive”.
With `CC1CCc2c(C(=O)Nc3nccs3)csc2C1` (centres undefined) the inhibition was “inactive”.
With `O=C(COc1ccccc1C(=O)N/N=C\c1ccc(O)c(O)c1)N/N=C/c1ccc(O)c(O)c1` the inhibition was “inactive”.
`CNC(=S)NNC(=O)c1cccn(Cc2cccc(Cl)c2)c1=O` was tested, and the inhibition was “inactive”.
In the case of `Brc1ccc2nc(CSc3ncn[nH]3)cn2c1`, the inhibition is reported as “inactive”.
In the case of `Cc1ccc(Cn2c(=N)c(C(=O)NCc3ccco3)cc3c(=O)n4ccccc4nc32)cc1`, the inhibition is reported as “inactive”.
With `O=[N+]([O-])c1ccc(N2CCN(S(=O)(=O)c3ccc(Cl)cc3)CC2)cc1NCc1cccnc1` the inhibition was “inactive”.
For `O=C(Nc1ccc2oc(-c3cccc4ccccc34)nc2c1)c1ncn[nH]1`, the inhibition was “inactive”.
`O=c1c(/C=N/Nc2ccccc2)c(Sc2nnnn2-c2ccccc2)nc2ccccn12` was tested, and the inhibition was “inactive”.
With `N#Cc1nc(-c2ccc(OCc3ccc(Cl)cc3)cc2)oc1NCCCn1ccnc1` the inhibition was “inactive”.
With `CCc1nnc(NS(=O)(=O)c2ccc(NC(=S)NC(=O)/C=C/c3ccc(C(C)C)cc3)cc2)s1` the inhibition was “inactive”.
In the case of `Cc1nc(S/C(=C/c2ccc(-c3cccc(Cl)c3)o2)C(=O)O)n[nH]1`, the inhibition is reported as “inactive”.
For `Cn1c(=O)cc(SCC(=O)NCCN2CCN(c3ccccc3F)CC2)c2cc(Cl)ccc21`, the inhibition was “inactive”.
For `Nc1c(C(=O)NCc2ccco2)c2nc3ccccc3nc2n1CCc1ccccc1F`, the inhibition was “inactive”.
`O=C(CCN1C(=O)c2ccccc2C1=O)Oc1ccc2ccccc2c1` was tested, and the inhibition was “inactive”.
For `Cc1cc(C(C)(C)C)cc(C)c1COC(=O)C1CCC(=O)N1` (centres undefined), the inhibition was “inactive”.
